According to US6677277B1, “Substituted sulphonyl amino(thio)carbonyl compounds and their use as herbicides” (Bayer Aktiengesellschaft, priority 1996, dated 2004):

What was measured:
Format in all cases: in vivo
[1] = test system: Viola; assay: Pre-emergence test/greenhouse; settings: 125 g ai./ha, after three weeks
Procedure: (§1) Pre-emergence Test Solvent: 5 parts by weight of acetone Emulsifier: 1 part by weight of alkylaryl polyglycol ether To produce a suitable preparation of active compound, 1 part by weight of active compound is mixed with the stated amount of solvent, the stated amount of emulsifier is added and the concentrate is diluted with water to the desired concentration. Seeds of the test plants are sown in normal soil. After about 24 hours, the soil is sprayed with the preparation of the active compound in such a way as to apply the particular amounts of active compound desired per unit area The concentration of the spray liquor is chosen so that the particular amounts of active compound desired are applied in 1000 l of water/ha. After three weeks, the degree of damage to the plants is rated in % damage in comparison to the development of the untreated control. The figures denote: [table]

[2] = test system: Cotton; assay: Pre-emergence test/greenhouse; settings: after three weeks
Procedure: as §1

[3] = test system: Matricaria; assay: Pre-emergence test/greenhouse; settings: 125 g ai./ha, after three weeks
Procedure: as §1

[4] = test system: Sorghum; assay: Pre-emergence test/greenhouse; settings: 125 g ai./ha, after three weeks
Procedure: as §1

[5] = test system: Chenopodium; assay: Pre-emergence test/greenhouse; settings: after three weeks
Procedure: as §1

[6] = test system: Alopecurus; assay: Pre-emergence test/greenhouse; settings: after three weeks
Procedure: as §1

[7] = test system: Amaranthus; assay: Pre-emergence test/greenhouse; settings: after three weeks
Procedure: as §1

[8] = test system: Maize; assay: Pre-emergence test/greenhouse; settings: 125 g ai./ha, after three weeks
Procedure: as §1

[9] = test system: Lolium; assay: Post-emergence test/greenhouse; settings: 60 g ai./ha, after three weeks
Procedure: as §1, with “Post-emergence” for “Pre-emergence”, “Test plants which have a height” for “Seeds”, “5-15 cm” for “the test plants”, “are” for “are sown in normal soil. After about 24 hours, the soil is”, “area.” for “area”

[10] = test system: Sorghum; assay: Post-emergence test/greenhouse; settings: 60 g ai./ha; for Sorghum, % damage: Table B-4, post-emergence, rated after three weeks vs untreated control
Procedure: as §1, with “Post-emergence” for “Pre-emergence”, “Test plants which have a height” for “Seeds”, “5-15 cm” for “the test plants”, “are” for “are sown in normal soil. After about 24 hours, the soil is”, “area.” for “area”

[11] = test system: Wheat; assay: Post-emergence test/greenhouse; settings: after three weeks
Procedure: as §1, with “Post-emergence” for “Pre-emergence”, “Test plants which have a height” for “Seeds”, “5-15 cm” for “the test plants”, “are” for “are sown in normal soil. After about 24 hours, the soil is”, “area.” for “area”

[12] = test system: Solanum; assay: Post-emergence test/greenhouse; settings: for % damage, Solanum: post-emergence, after three weeks; for Solanum, % damage: Table B-4, post-emergence, rated after three weeks vs untreated control
Procedure: as §1, with “Post-emergence” for “Pre-emergence”, “Test plants which have a height” for “Seeds”, “5-15 cm” for “the test plants”, “are” for “are sown in normal soil. After about 24 hours, the soil is”, “area.” for “area”

[13] = test system: Alopecurus; assay: Post-emergence test/greenhouse; settings: 60 g ai./ha, after three weeks
Procedure: as §1, with “Post-emergence” for “Pre-emergence”, “Test plants which have a height” for “Seeds”, “5-15 cm” for “the test plants”, “are” for “are sown in normal soil. After about 24 hours, the soil is”, “area.” for “area”

[14] = test system: Ipomoea; assay: Post-emergence test/greenhouse; settings: 60 g ai./ha, after three weeks
Procedure: as §1, with “Post-emergence” for “Pre-emergence”, “Test plants which have a height” for “Seeds”, “5-15 cm” for “the test plants”, “are” for “are sown in normal soil. After about 24 hours, the soil is”, “area.” for “area”

[15] = test system: Stellaria; assay: Post-emergence test/greenhouse; settings: 60 g ai./ha, after three weeks
Procedure: as §1, with “Post-emergence” for “Pre-emergence”, “Test plants which have a height” for “Seeds”, “5-15 cm” for “the test plants”, “are” for “are sown in normal soil. After about 24 hours, the soil is”, “area.” for “area”

[16] = test system: weeds; assay: Pre-emergence test; settings: cf. Tables A-1 to A-5
Procedure: as §1

[17] = test system: weeds; assay: Post-emergence test; settings: cf. Tables B-1 to B-4
Procedure: as §1, with “Post-emergence” for “Pre-emergence”, “Test plants which have a height” for “Seeds”, “5-15 cm” for “the test plants”, “are” for “are sown in normal soil. After about 24 hours, the soil is”, “area.” for “area”

[18] = test system: Amaranthus; assay: Post-emergence test/greenhouse; settings: for Amaranthus, % damage: Table B-4, post-emergence, 60 g ai./ha, rated after three weeks vs untreated control
Procedure: as §1, with “Post-emergence” for “Pre-emergence”, “Test plants which have a height” for “Seeds”, “5-15 cm” for “the test plants”, “are” for “are sown in normal soil. After about 24 hours, the soil is”, “area.” for “area”

[19] = test system: Xanthium; assay: Post-emergence test/greenhouse; settings: for Xanthium, % damage: Table B-4, post-emergence, 60 g ai./ha, rated after three weeks vs untreated control
Procedure: as §1, with “Post-emergence” for “Pre-emergence”, “Test plants which have a height” for “Seeds”, “5-15 cm” for “the test plants”, “are” for “are sown in normal soil. After about 24 hours, the soil is”, “area.” for “area”

[20] = test system: Echinochloa; assay: Post-emergence test/greenhouse; settings: Table B-4, post-emergence, 60 g ai./ha, rated after three weeks vs untreated control
Procedure: as §1, with “Emulsifier:” for “Pre-emergence Test Solvent: 5 parts by weight of acetone Emulsifier:”, “Test plants which have a height” for “Seeds”, “5-15 cm” for “the test plants”, “are” for “are sown in normal soil. After about 24 hours, the soil is”, “area.” for “area”, “control.” for “control. The figures denote: [table]”

[21] = test system: Matricaria; assay: Post-emergence test/greenhouse; settings: 125 g ai./ha, after three weeks
Procedure: as §1, with “Post-emergence” for “Pre-emergence”, “Test plants which have a height” for “Seeds”, “5-15 cm” for “the test plants”, “are” for “are sown in normal soil. After about 24 hours, the soil is”, “area.” for “area”

[22] = test system: Lolium; assay: Pre-emergence test/greenhouse; settings: 125 g ai./ha, after three weeks
Procedure: as §1

[23] = test system: Solanum; assay: Pre-emergence test/greenhouse; settings: 125 g ai./ha, after three weeks
Procedure: as §1

[24] = test system: Veronica; assay: Pre-emergence test/greenhouse; settings: after three weeks
Procedure: as §1

[25] = test system: Wheat; assay: Pre-emergence test/greenhouse; settings: after three weeks
Procedure: as §1

[26] = test system: Echinochloa; assay: Pre-emergence test/greenhouse; settings: after three weeks
Procedure: as §1

[27] = test system: Bromus; assay: Pre-emergence test/greenhouse; settings: after three weeks
Procedure: as §1

[28] = post-emergence, 125 g ai./ha, after three weeks

Compound | % damage, Cotton ([2]; 125 g ai./ha) [%] | % damage, Matricaria [3] [%] | % damage, Sorghum [4] [%] | % damage, Chenopodium ([5]; 125 g ai./ha) [%] | % damage, Alopecurus ([6]; 125 g ai./ha) [%] | % damage, Amaranthus ([7]; 125 g ai./ha) [%] | activity against weeds [16] | activity against weeds [17] | Sorghum, % damage [10] [%] | Solanum, % damage ([12]; 60 g ai./ha) [%] | Amaranthus, % damage [18] [%] | Xanthium, % damage [19] [%] | Echinochloa, % damage [20] [%] | also measured
COc1cccc(SC(C)C)c1S(=O)(=O)NC(=O)n1nc(OC)n(C)c1=O [Example 24] | 0 | 70 | 70 | 100 | 95 | 100 | very strong activity | very strong activity |  |  |  |  |  | % damage, Viola [1]: 100%; % damage, Maize [8]: 0%; % damage, Lolium [9]: 60%; % damage, Sorghum ([10]; post-emergence, after three weeks): 90%; % damage, Wheat ([11]; 60 g ai./ha): 15%; % damage, Solanum ([12]; 60 g ai./ha): 95%; % damage, Alopecurus [13]: 90%; % damage, Ipomoea [14]: 90%; % damage, Stellaria [15]: 95%
COc1nn(C(=O)NS(=O)(=O)c2c(SC)cccc2SC)c(=O)n1C [Example 50] |  |  |  |  |  |  |  | very strong activity | 95 | 95 | 95 | 95 | 80 | 
CCOc1nn(C(=O)NS(=O)(=O)c2c(C)cccc2SCC)c(=O)n1C [Example 56] |  |  |  |  |  |  |  | very strong activity |  |  |  |  |  | % damage, Matricaria [21]: 100%; % damage, Wheat ([11]; 125 g ai./ha): 10%; % damage, Solanum ([12]; 125 g ai./ha): 100%; % damage, Amaranthus [18, 28]: 100%; % damage, Xanthium [19, 28]: 100%
CCOc1nn(C(=O)NS(=O)(=O)c2c(OC)cccc2SCCF)c(=O)n1C [Example 59] |  | 100 | 100 | 100 | 100 | 100 | very strong activity | very strong activity | 100 | 90 | 100 | 95 | 100 | % damage, Lolium [22]: 100%; % damage, Solanum [23]: 100%
CCOc1nn(C(=O)NS(=O)(=O)c2c(SC(C)(C)C)cccc2C(F)(F)F)c(=O)n1C [Example 60] | 20 |  |  | 100 | 90 | 100 | very strong activity |  |  |  |  |  |  | % damage, Veronica ([24]; 125 g ai./ha): 100%; % damage, Wheat ([25]; 125 g ai./ha): 0%; % damage, Echinochloa ([26]; 125 g ai./ha): 100%; % damage, Bromus ([27]; 125 g ai./ha): 95%
COc1nn(C(=O)NS(=O)(=O)c2c(SC)cccc2C(F)(F)F)c(=O)n1C [Example 61] |  |  |  |  |  |  | very strong activity |  |  |  |  |  |  | % damage, Cotton ([2]; 60 g ai./ha): 0%; % damage, Veronica ([24]; 60 g ai./ha): 80%; % damage, Wheat ([25]; 60 g ai./ha): 30%; % damage, Chenopodium ([5]; 60 g ai./ha): 100%; % damage, Alopecurus ([6]; 60 g ai./ha): 95%; % damage, Amaranthus ([7]; 60 g ai./ha): 100%; % damage, Echinochloa ([26]; 60 g ai./ha): 100%; % damage, Bromus ([27]; 60 g ai./ha): 100%
